Experimental data reported in patent publication US6673798B2, “PDGF receptor kinase inhibitory compounds, their preparation, purification and pharmaceutical compositions including same” (Yissum Research Development Company of the Hebrew …, priority 1999, dated 2004).

How the values were obtained:
PAEC/PDGFR cells [1] = assay: Migration of PDGFβR transfected PAEC cells toward PDGF-BB (Boyden chamber); type: cell-based, porcine; conditions: Sus scrofa, PDGF-BB 10 ng/ml, read-out: IC50 (50% inhibition of migration) PDGFβR
Description: (§1) Assessment of cell migration (Chemotaxis assay): The chemotactic response of HCASMC, PAEC/KDR and PAEC/PDGFR cells was assessed using the modified Boyden chamber (Neuro Probe, Inc.) and collagen-coated polycarbonate filters (Nucleopore) with pore diameters of 8 μm as previously described. Briefly, PAEC/KDR and PAEC/PDGFR cells were cultivated and assayed in Ham's F12 medium containing 10% FCS. HCASMC were cultivated in SmGM-2 (clonetics) and assayed in SmBM-WM containing 10% FCS and 0.1% BSA. To the medium in the lower part of the Boyden chamber, either VEGF or PDGF-BB (10 ng/ml, respectively) were added. AG2033 was added to both upper and lower chamber parts. Suspended cells were given 4 hours for migration, after a preincubation period of 15 minute in AG2033. The number of cells that migrated without PDGF-BB or VEGF stimulation was referred to as 100% migration (chemokinesis). The assay was performed in triplicate, and five medium-power fields were counted per well using a light microscope (Jenalab).
(§2) Evaluation of PDGFβR or KDR stably transfected PAEC cells migration toward the respective growth factors, PDGD-BB and VEGF (10 ng/ml, respectively), in the presence of the purified AG2033 isomer, was conducted in a Boyden chamber (see experimental section, above). […]

PAEC/KDR cells [2] = assay: Proliferation of KDR transfected PAEC cells ([3H]thymidine incorporation); type: cell-based, porcine; conditions: Sus scrofa, read-out: IC50 (50% inhibition of proliferation) KDR
Description: (§3) Porcine aortic endothelial cells (PAEC), stably transfected with either PDGF-receptor (PAEC/PDGFβR cells, kindly provided by Dr. L. Claesson-Welsh, Uppsala, Sweden) or VEGF-receptor KDR (PAEC/KDR), respectively, were used as previously described. Cells were routinely cultured in Ham's F-12 medium supplemented with geneticin (0.4 mg/ml) and 10% FCS.
(§4) Assessment of cell proliferation ([^3H]thymidine incorporation assay): PAEC/KDR and PAEC/PDGFR cells, grown in Ham's F12 medium containing 10% FCS were seeded sparsely in 12 well culture dishes. After 24 hours, cells were washed two times with Ham's F12 medium containing 1% FCS and incubated for additional 48 hours with one renewal of medium. Cells were incubated for 15 minute with different concentrations of AG2033 (0.1; 1 and 10 μM) or with the solvent DMSO alone, stimulated with 3 ng/ml VEGF or with 15 ng/ml PDGF-BB for 20 hours, followed by addition of 0.25 μCi of [^3H]-thymidine/ml (Amersham) for two hours. High molecular weight [^3H]-radioactivity was precipitated using 5% trichloroacetic acid at 4° C. for 30 minutes. After two washes with ice-cold H2O, [^3H]-radioactivity was solubilized in 1 M NaOH (400 μl/well) at room temperature for 8 minutes, neutralized by the addition of 2 M HCL (400 μl/well), and quantitated by liquid scintillation counting. […]

PDGFβR = molecular target: T1, PDGFβR (Mus musculus, UniProt P05622); assay: PDGF-induced PDGFβR autophosphorylation in intact Swiss 3T3 cells (FIG. 8); type: cell-based; conditions: at 1 μM
T1 construct: A preparation of purified PDGFR from Swiss 3T3 cell membranes was used; endogenous in cells
T1 sequence (P05622 32-1098): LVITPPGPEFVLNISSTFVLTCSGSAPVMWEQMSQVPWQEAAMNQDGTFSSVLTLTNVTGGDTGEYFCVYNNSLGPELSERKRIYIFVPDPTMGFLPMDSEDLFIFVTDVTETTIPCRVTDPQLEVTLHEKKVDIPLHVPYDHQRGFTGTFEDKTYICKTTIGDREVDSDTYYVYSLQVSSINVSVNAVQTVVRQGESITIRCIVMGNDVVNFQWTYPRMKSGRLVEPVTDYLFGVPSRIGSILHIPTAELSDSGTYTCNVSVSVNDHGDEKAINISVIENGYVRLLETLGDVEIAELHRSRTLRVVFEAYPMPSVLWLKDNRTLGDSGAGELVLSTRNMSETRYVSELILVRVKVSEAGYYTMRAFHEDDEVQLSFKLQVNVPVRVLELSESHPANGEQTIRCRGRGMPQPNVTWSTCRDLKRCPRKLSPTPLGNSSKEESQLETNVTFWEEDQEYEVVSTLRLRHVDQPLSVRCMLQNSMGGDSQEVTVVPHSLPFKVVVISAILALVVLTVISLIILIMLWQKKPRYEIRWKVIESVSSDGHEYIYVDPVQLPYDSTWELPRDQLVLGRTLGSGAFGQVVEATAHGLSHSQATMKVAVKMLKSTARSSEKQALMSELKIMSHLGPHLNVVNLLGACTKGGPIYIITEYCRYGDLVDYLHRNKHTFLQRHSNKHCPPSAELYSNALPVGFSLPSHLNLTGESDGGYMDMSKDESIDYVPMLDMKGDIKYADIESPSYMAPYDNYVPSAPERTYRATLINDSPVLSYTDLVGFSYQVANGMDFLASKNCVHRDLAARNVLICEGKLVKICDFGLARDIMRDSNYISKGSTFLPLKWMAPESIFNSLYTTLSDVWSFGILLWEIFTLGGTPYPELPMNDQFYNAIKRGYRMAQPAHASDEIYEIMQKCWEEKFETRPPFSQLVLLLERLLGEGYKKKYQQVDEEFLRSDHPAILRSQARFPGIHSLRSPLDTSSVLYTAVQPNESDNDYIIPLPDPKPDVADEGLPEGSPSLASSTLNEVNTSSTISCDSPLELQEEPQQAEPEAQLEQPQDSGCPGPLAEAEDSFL
Description: Kinase reactions, using an isolated PDGFβR preparation, in the presence of 0.03-3 μM tyrphostin, were conducted, utilizing [γ-^32P]ATP as probe. Densitometric evaluation, relative to control lacking the tyrphostin inhibitor (100%), results in the percent autokinase activity, presented in Table 8 and in the dose-response curves for the purified transoid isomers AG2033 (FIG. 6) and AG2043 (FIG. 7). Further comparison between the resulting autoradiogrms for each pair of geometrical isomers AG2033 and AG2034 (upper panel); AG2043 and AG2044 (lower panel), for their inhibitory activity towards PDGF-induced PDGFβR autophosphorylation (concentration range: 0.1-10 μM) in intact cells is presented in FIG. 8. […] Similar potency relation exists between the AG2043 and AG2044 isomers.

PAEC/KDR cells [3] = assay: Migration of KDR transfected PAEC cells toward VEGF (Boyden chamber); type: cell-based, porcine; conditions: Sus scrofa, VEGF 10 ng/ml, read-out: IC50 (50% inhibition of migration) KDR
Description: as §1, §2

PAEC/PDGFR cells [4] = assay: Proliferation of PDGFβR transfected PAEC cells ([3H]thymidine incorporation); type: cell-based, porcine; conditions: Sus scrofa, read-out: IC50 (50% inhibition of proliferation) PDGFβR
Description: as §3, §4

porcine SMC = assay: Inhibition of SMC proliferation and recovery (cell count); type: cell-based; conditions: 10 μM
Description: Smooth muscle cells (SMC) were obtained under aseptic conditions from porcine abdominal aortas. Each artery was cut open and the endothelial surface mechanically scraped. The vessels were then cut into 2 mm^2 fragments which were placed in culture dishes with Dulbecco's modified Eagle's medium (DMEM) supplemented with 15% (v/v) fetal calf serum (FCS), 100 u/ml penicillin, 100 μg/ml streptomycin, and […]. The tissue fragments were then placed in an incubator at 37° C. under 9% CO2 atmosphere until SMC outgrowth was detected (typically within 3-7 days). […] For experiments testing the effect of tyrphostins on growth inhibition and recovery (see below), SMC from passages 1-3 were replated in 15 mm wells pretreated with 3 μg/cm^2 fibronectin (Biological Industries, Kibbutz Beit Haemek, Israel) at 15,000 cells/well.
Inhibition of cell proliferation and recovery: Monolayer cell growth inhibition and recovery experiments were repeated 3 or 4 times. Each experiment was performed in triplicate. Approximately 15,000 cells (SMC or PAEC) in 1 ml of culture medium supplemented with either 15% FCS (SMC) or 10% FCS (PAEC) were seeded on day 0 in 15 mm-wells precoated with fibronectin (SMC) or uncoated (PAEC). Cultures were treated with 10 μM of the following tyrphostin compounds: AG2033, AC2034, AG2043 and AG2044 (for SMC) or AG2033 (for PAEC) dissolved in 0.1% DMSO on days 1 and 3. On day 7, cultures were washed and the cells allowed to recover. Typically cells were counted on days 3 and 6 for inhibition, and on day 13 for recovery. The medium supplemented with serum (DMEM for SMC and Ham's F12 for PAEC) was changed every other day throughout the experiment.
Cells were grown in the presence of the specified tyrphostins and were counted on days 3, 6 and 13 in culture. On day 7 the cultures were washed and the cells allowed to recover. […] The inhibitory effect of all three compounds was reversible, and the cells resumed normal growth response as soon as the treatment with the tyrphostins was withdrawn.

| Structure (SMILES) | IC50 (PAEC/PDGFR cells [1]) [µM] | melting point [°C] | IC50 (PAEC/KDR cells [2]) [µM] | inhibitory activity towards PDGF-induced PDGFβR autophosphorylation in intact cells (PDGFβR) | IC50 (PAEC/KDR cells [3]) [µM] | IC50 (PAEC/PDGFR cells [4]) [µM] | toxic effect on the cells (porcine SMC; SMC) | mean reduction in SMC count by day 3 (porcine SMC; compared to DMSO treated control cells) [%] | reversibility of the inhibitory effect on SMC proliferation (porcine SMC; cultures washed on day 7, recovery counted day 13) |
| --- | --- | --- | --- | --- | --- | --- | --- | --- | --- |
| Cc1nc2cc3nc(-c4ccccc4)cnc3cc2n1C [AG2033, 1,2-dimethyl-6-phenyl imidazolo[5,4-g]quinoxaline] | 5 | 275 | > 10 | marked inhibitory activity | > 10 | 2.5 |  |  |  |
| Cc1nc2cc3nc(-c4cccs4)cnc3cc2n1C [AG2043, 1,2-dimethyl-6-(2-thiophene) imidazolo[5,4-g]quinoxaline] |  |  |  |  |  |  | without having a substantial toxic effect | 46 | completely reversible |
